Patent US6737383B1, “Herbicidal oxadiazolidines” (priority 1999, dated 2004)

Experiments:
pigweed = assay: Test B pre/postemergence pigweed; format: in vivo, Amaranthus retroflexus
How it was run: (§1)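 Response is a visual 0-to-10 score relative to untreated plants, where 0 means no effect and 10 means complete control, taken twelve to sixteen days after application. Treatments went onto soil at planting and onto foliage of 1- to 4-leaf plants, using a surfactant-containing non-phytotoxic solvent.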

soybean = assay: Test B pre/postemergence soybean; format: in vivo, Glycine max
How it was run: as §1

rape = assay: Test B pre/postemergence rape; format: in vivo, Brassica napus
How it was run: as §1

duck salad = assay: Test B flood test duck salad; format: in vivo, Heteranthera limosa
How it was run: (§2)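 Flood test on plants grown to the 2-leaf stage; treated plants kept in greenhouse twelve to sixteen days, then visually rated against controls on a 0 (no effect) to 10 (complete control) scale.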

cocklebur = assay: Test B pre/postemergence cocklebur; format: in vivo, Xanthium strumarium
How it was run: as §1

smallflower flatsedge = assay: Test B flood test smallflower flatsedge; format: in vivo, Cyperus difformis
How it was run: as §2

bamyardgrass = assay: Test B flood test barnyardgrass; format: in vivo, Echinochloa crus-galli
How it was run: as §2

velvetleaf = assay: Test B pre/postemergence velvetleaf; format: in vivo, Abutilon theophrasti
How it was run: as §1

morningglory = assay: Test B pre/postemergence morningglory; format: in vivo, Ipomoea hederacea
How it was run: as §1

giant foxtail = assay: Test B pre/postemergence giant foxtail; format: in vivo, Setaria faberii
How it was run: as §1

wheat = assay: Test B pre/postemergence wheat; format: in vivo, Triticum aestivum
How it was run: as §1

sugar beet = assay: Test B pre/postemergence sugar beet; format: in vivo, Beta vulgaris
How it was run: as §1

corn = assay: Test B pre/postemergence corn; format: in vivo, Zea mays
How it was run: as §1

rice = assay: Test B flood test rice; format: in vivo, Oryza sativa
How it was run: as §2

surinam grass = assay: Test B pre/postemergence surinam grass; format: in vivo, Brachiaria decumbens; conditions: for Plant response rating, B. signalgrass: Postemergence; for B. signalgrass plant response rating: Preemergence
How it was run: as §1

wild oat = assay: Test B pre/postemergence wild oat; format: in vivo, Avena fatua
How it was run: as §1

purple nutsedge = assay: Test B pre/postemergence purple nutsedge; format: in vivo, Cyperus rotundus
How it was run: as §1

blackgrass = assay: Test B pre/postemergence blackgrass; format: in vivo, Alopecurus myosuroides
How it was run: as §1

crabgrass = assay: Test B pre/postemergence crabgrass; format: in vivo, Digitaria sanguinalis
How it was run: as §1

[1] = Postemergence, Rate 62 g/ha, scale 0 to 10, 0 is no effect, 10 is complete control
[2] = Postemergence, Rate 125 g/ha, scale of 0 to 10 where 0 is no effect and 10 is complete control
[3] = Postemergence, Rate 250 g/ha, scale of 0 to 10, 0 is no effect, 10 is complete control
[4] = Postemergence, Rate 500 g/ha, scale of 0 to 10 where 0 is no effect and 10 is complete control
[5] = Preemergence, Rate 62 g/ha, scale 0 to 10 (0 no effect, 10 complete control)
[6] = Preemergence, Rate 125 g/ha, scale of 0 to 10 where 0 is no effect and 10 is complete control
[7] = Preemergence, Rate 500 g/ha, scale of 0 to 10 where 0 is no effect and 10 is complete control
[8] = Rate 62 g/ha, flood test species, Pre-emergence, visual evaluation after twelve to sixteen days
[9] = Rate 125 g/ha, under heading Pre-emergence, flood test species, visual evaluation after twelve to sixteen days
[10] = Rate 250 g/ha, Pre-emergence (flood test species), scale 0 to 10, 0 is no effect, 10 is complete control
[11] = Rate 500 g/ha, Pre-emergence section of Table B, 0 to 10 scale (0 no effect, 10 complete control)
[12] = Rate 125 g/ha, scale of 0 to 10 where 0 is no effect and 10 is complete control
[13] = Rate 500 g/ha, scale of 0 to 10 where 0 is no effect and 10 is complete control

C=C(Cl)Cn1c(=O)on(C(=O)N(c2ccccc2)C(C)C)c1=O [Compound 608]
Plant response rating, Redroot pigweed (pigweed; [1]): 3
Plant response rating, Redroot pigweed (pigweed; [2]): 5
Redroot pigweed plant response rating (pigweed; [3]): 7
Plant response rating, Redroot pigweed (pigweed; [4]): 8
Redroot pigweed plant response rating (pigweed; [5]): 5
Redroot pigweed plant response rating (pigweed; [6]): 5
Plant response rating, Redroot pigweed (pigweed; [7]): 7
Plant response rating, Soybean (soybean; [1]): 3
Plant response rating, Soybean (soybean; [2]): 4
Soybean plant response rating (soybean; [3]): 4
Soybean plant response rating (soybean; [5]): 0
Soybean plant response rating (soybean; [6]): 0
Plant response rating, Soybean (soybean; [7]): 4
Plant response rating, Rape (rape; [1]): 1
Plant response rating, Rape (rape; [2]): 5
Rape plant response rating (rape; [3]): 5
Plant response rating, Rape (rape; [4]): 7
Rape plant response rating (rape; [5]): 1
Rape plant response rating (rape; [6]): 5
Plant response rating, Rape (rape; [7]): 7
Plant response rating, Ducksalad (0 to 10 scale, 0 is no effect, 10 is complete control) (duck salad; [8]): 0
Ducksalad plant response rating (0 to 10 scale, 0 is no effect, 10 is complete control) (duck salad; [9]): 0
Ducksalad plant response rating (duck salad; [10]): 0
Ducksalad plant response rating (duck salad; [11]): 0
Plant response rating, Cocklebur (cocklebur; [1]): 0
Plant response rating, Cocklebur (cocklebur; [2]): 0
Cocklebur plant response rating (cocklebur; [3]): 0
Plant response rating, Cocklebur (cocklebur; [4]): 0
Cocklebur plant response rating (cocklebur; [5]): 0
Cocklebur plant response rating (cocklebur; [6]): 0
Cocklebur plant response rating (0 to 10 scale) (cocklebur; Preemergence, Rate 250 g/ha): 0
Plant response rating, Cocklebur (cocklebur; [7]): 0
Plant response rating, S. Flatsedge (0 to 10 scale, 0 is no effect, 10 is complete control) (smallflower flatsedge; [8]): 0
S. Flatsedge plant response rating (0 to 10 scale, 0 is no effect, 10 is complete control) (smallflower flatsedge; [9]): 0
S. Flatsedge plant response rating (smallflower flatsedge; [10]): 0
S. Flatsedge plant response rating (smallflower flatsedge; [11]): 0
Plant response rating, Barnyardgrass (0 to 10 scale, 0 is no effect, 10 is complete control) (bamyardgrass; [8]): 0
Barnyardgrass plant response rating (0 to 10 scale, 0 is no effect, 10 is complete control) (bamyardgrass; [9]): 0
Barnyardgrass plant response rating (bamyardgrass; [10]): 0
Barnyardgrass plant response rating (bamyardgrass; [11]): 0
Plant response rating, Velvetleaf (velvetleaf; [1]): 0
Plant response rating, Velvetleaf (velvetleaf; [2]): 0
Velvetleaf plant response rating (velvetleaf; [3]): 4
Plant response rating, Velvetleaf (velvetleaf; [4]): 6
Velvetleaf plant response rating (velvetleaf; [5]): 0
Velvetleaf plant response rating (velvetleaf; [6]): 4
Plant response rating, Velvetleaf (velvetleaf; [7]): 7
Plant response rating, Morningglory (morningglory; [1]): 0
Plant response rating, Morningglory (morningglory; [2]): 7
Morningglory plant response rating (morningglory; [3]): 8
Plant response rating, Morningglory (morningglory; [4]): 10
Morningglory plant response rating (morningglory; [5]): 0
Morningglory plant response rating (morningglory; [6]): 0
Plant response rating, Morningglory (morningglory; [7]): 4
Plant response rating, Giant foxtail (giant foxtail; [1]): 5
Plant response rating, Giant foxtail (giant foxtail; [2]): 7
Giant foxtail plant response rating (giant foxtail; [3]): 7
Plant response rating, Giant foxtail (giant foxtail; [4]): 9
Giant foxtail plant response rating (giant foxtail; [5]): 9
Giant foxtail plant response rating (giant foxtail; [6]): 10
Plant response rating, Giant foxtail (giant foxtail; [7]): 10
Plant response rating, Wheat (wheat; [1]): 0
Wheat plant response rating (wheat; [3]): 0
Plant response rating, Wheat (wheat; [4]): 0
Wheat plant response rating (wheat; [5]): 0
Wheat plant response rating (wheat; [6]): 0
Plant response rating, Wheat (wheat; [7]): 0
Plant response rating, Sugarbeets (sugar beet; [1]): 0
Plant response rating, Sugarbeets (sugar beet; [2]): 5
Sugarbeets plant response rating (sugar beet; [3]): 5
Plant response rating, Sugarbeets (sugar beet; [4]): 5
Sugarbeets plant response rating (sugar beet; [5]): 0
Sugarbeets plant response rating (sugar beet; [6]): 0
Plant response rating, Sugarbeets (sugar beet; [7]): 4
Plant response rating, Corn (corn; [1]): 0
Plant response rating, Corn (corn; [2]): 0
Corn plant response rating (corn; [3]): 0
Plant response rating, Corn (corn; [4]): 0
Corn plant response rating (corn; [5]): 0
Corn plant response rating (corn; [6]): 0
Corn plant response rating (0 to 10 scale) (corn; Preemergence, Rate 250 g/ha): 0
Plant response rating, Corn (corn; [7]): 1
Plant response rating, Rice (0 to 10 scale, 0 is no effect, 10 is complete control) (rice; [8]): 0
Rice plant response rating (0 to 10 scale, 0 is no effect, 10 is complete control) (rice; [9]): 0
Rice plant response rating (rice; [10]): 0
Rice plant response rating (rice; [11]): 0
Plant response rating, B. signalgrass (surinam grass; Rate 62 g/ha, scale 0 to 10, 0 is no effect, 10 is complete control): 3
Plant response rating, B. signalgrass (surinam grass; [12]): 10
Plant response rating, B. signalgrass (surinam grass; [13]): 10
B. signalgrass plant response rating (surinam grass; Rate 62 g/ha, scale 0 to 10 (0 no effect, 10 complete control)): 1
B. signalgrass plant response rating (surinam grass; [12]): 10
B. signalgrass plant response rating (surinam grass; [13]): 10
Plant response rating, Wild oats (wild oat; [1]): 3
Plant response rating, Wild oats (wild oat; [2]): 4
Wild oats plant response rating (wild oat; [3]): 5
Plant response rating, Wild oats (wild oat; [4]): 6
Wild oats plant response rating (wild oat; [5]): 0
Wild oats plant response rating (wild oat; [6]): 3
Plant response rating, Wild oats (wild oat; [7]): 6
Plant response rating, Nutsedge (purple nutsedge; [1]): 0
Plant response rating, Nutsedge (purple nutsedge; [2]): 0
Nutsedge plant response rating (purple nutsedge; [3]): 0
Nutsedge plant response rating (purple nutsedge; [6]): 0
Plant response rating, Nutsedge (purple nutsedge; [7]): 0
Plant response rating, Blackgrass (blackgrass; [1]): 4
Plant response rating, Blackgrass (blackgrass; [2]): 6
Blackgrass plant response rating (blackgrass; [3]): 8
Plant response rating, Blackgrass (blackgrass; [4]): 9
Blackgrass plant response rating (blackgrass; [5]): 2
Blackgrass plant response rating (blackgrass; [6]): 5
Blackgrass plant response rating (0 to 10 scale) (blackgrass; Preemergence, Rate 250 g/ha): 7
Blackgrass plant response rating (blackgrass; [7]): 9
Plant response rating, Crabgrass (crabgrass; [1]): 3
Plant response rating, Crabgrass (crabgrass; [2]): 3
Crabgrass plant response rating (crabgrass; [3]): 7
Plant response rating, Crabgrass (crabgrass; [4]): 7
Crabgrass plant response rating (crabgrass; [5]): 7
Crabgrass plant response rating (crabgrass; [6]): 9
Plant response rating, Crabgrass (crabgrass; [7]): 10
